Values after ≈ are worked out from the molar mass of the structure shown.
Tests used:
S. aureus USA 300 ΔClpP = assay: Minimal inhibitory concentration, microbroth dilution; format: cell-based, Staphylococcus aureus; settings: ClpP inactivated strain
Summary of the method: (§1)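 Following CLSI M7-A7 microbroth dilution, twofold serial dilutions of compound (top final concentration 200 μM) were combined with an equal volume of broth inoculum at about 10^5 cfu/mL. Plates were incubated aerobically at 37 °C overnight, and the MIC was the lowest concentration preventing visible growth.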

[1] = test system: Vero (kidney epithelial cells; ATCC CCL-81); assay: Cytotoxicity assay, CellTiter-Glo cell viability; format: cell-based; settings: Vero cells, 72 hours
Summary of the method: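 Vero cells seeded overnight at 37 °C in DMEM with 10% FBS, then exposed to serial dilutions of compound for 72 h. Viability read by CellTiter-Glo luminescence; IC50 from duplicates, given as the range of two independent experiments.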

S. aureus ATCC 29213 = assay: Minimal inhibitory concentration, microbroth dilution; format: cell-based; settings: Staphylococcus aureus, ATCC29213, read-out: Minimal Inhibitory Concentration S. aureus ATCC 29213
Summary of the method: as §1

B. subtilis ATCC 23857 = assay: as above; format: cell-based; settings: Bacillus subtilis, ATCC23857, read-out: Minimal Inhibitory Concentration B. subtilis ATCC 23857
Summary of the method: as §1

S. aureus USA 300 = assay: as above; format: cell-based; settings: Staphylococcus aureus, USA300, read-out: Minimal Inhibitory Concentration S. aureus USA 300
Summary of the method: as §1

S. aureus NRS70 = assay: as above; format: cell-based; settings: Staphylococcus aureus, NRS70, read-out: Minimal Inhibitory Concentration S. aureus NRS70
Summary of the method: as §1

S. pneumoniae R6 = assay: as above; format: cell-based; settings: Streptococcus pneumoniae, R6, read-out: Minimal Inhibitory Concentration S. pneumoniae R6
Summary of the method: (§2)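 Twofold serial dilutions in broth per CLSI M7-A7 microbroth dilution, incubated aerobically overnight at 37° C. MIC read visually as lowest concentration preventing bacterial growth.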

S. pyogenes ATCC 700294 = assay: as above; format: cell-based; settings: Streptococcus pyogenes, ATCC700294, read-out: Minimal Inhibitory Concentration S. pyogenes ATCC 700294
Summary of the method: as §2

[2] = from C[C@H]1C[C@@H](C(=O)O[C@@H](C)[C@H](NC(=O)OCc2ccccc2)C(=O)OCC(=O)c2ccccc2)N(C(=O)[C@H](C)NC(=O)[C@@H]2CCCCN2C(=O)[C@@H]2CCCN2C(=O)OC(C)(C)C)C1, amide bond, pentafluorophenyl ester (EDC·HCl/pentafluorophenol), then aq NaHCO3, DCM, 1.24 mM, 25.0 °C, 4 steps

Row | SMILES | Minimal Inhibitory Concentration S. aureus USA 300 ΔClpP (S. aureus USA 300 ΔClpP) | IC50 [1] | MIC (S. aureus ATCC 29213) | MIC (B. subtilis ATCC 23857) | MIC (S. aureus USA 300) | MIC (S. aureus NRS70) | MIC (S. pneumoniae R6) | MIC (S. pyogenes ATCC 700294) | ring closure, yield of all isomers [2]
1 | Cc1ccc(NC(=O)N[C@@H](Cc2cc(F)cc(F)c2)C(=O)N[C@@H]2C(=O)N3CCCC3C(=O)N(C)[C@@H]([C@H](C)O)C(=O)N[C@@H](C)C(=O)N3C[C@H](C)CC3C(=O)O[C@H]2C)cc1 (stereo partly drawn) [Compound 38, (S)-3-(3,5-Difluorophenyl)-N-((2R,6S,9S,11aS,17S,18S,20aS)-9-((S)-1-Hydroxyethyl)-2,6,10,18-Tetramethyl-5,8,11,16,20-Pentaoxohexadecahydro-1H,5H,16H-Dipyrrolo[2,1-C:2′,1′-L][1]Oxa[4,7,10,13]Tetraazacyclohexadecin-17-Yl)-2-(3-(P-Tolyl)Ureido)Propanamide] | 200 µM | 46.1 ± 5.5 µM | 0.05 µM (≈ 0.0406 µg/mL) | 0.05 µM (≈ 0.0406 µg/mL) | 0.1 µM (≈ 0.0812 µg/mL) | 0.05 µM (≈ 0.0406 µg/mL) | 0.02 µM (≈ 0.0162 µg/mL) | 0.1 µM (≈ 0.0812 µg/mL) | 
2 | Cc1ccc(NC(=O)N[C@@H](Cc2cc(F)cc(F)c2)C(=O)N[C@@H]2C(=O)N3CCCC3C(=O)N(C)[C@@H]([C@H](C)O)C(=O)N[C@@H](C)C(=O)N3C[C@@H](C)CC3C(=O)O[C@H]2C)cc1 (stereo partly drawn) [Compound 35, (S)-3-(3,5-Difluorophenyl)-N-((2S,6S,9S,11aS,17S,18S,20aS)-9-((S)-1-Hydroxyethyl)-2,6,10,18-Tetramethyl-5,8,11,16,20-Pentaoxohexadecahydro-1H,5H,16H-Dipyrrolo[2,1-C:2′,1′-L][1]Oxa[4,7,10,13]Tetraazacyclohexadecin-17-Yl)-2-(3-(P-Tolyl)Ureido)Propanamide] | 200 µM | 55.7 ± 3.6 µM | 0.2 µM (≈ 0.162 µg/mL) | 0.2 µM (≈ 0.162 µg/mL) | 0.2 µM (≈ 0.162 µg/mL) | 0.1 µM (≈ 0.0812 µg/mL) | 0.049 µM (≈ 0.0398 µg/mL) | 0.39 µM (≈ 0.317 µg/mL) | 
3 | C[C@H]1C[C@H]2C(=O)O[C@@H](C)[C@H](NC(=O)OCc3ccccc3)C(=O)N3CCC[C@H]3C(=O)N3CCCC[C@H]3C(=O)N[C@@H](C)C(=O)N2C1 |  |  |  |  |  |  |  |  | 74%

From patent US9879050B2, “Substituted urea depsipeptide analogs as activators of the CLPP endopeptidase” (priority 2013, dated 2018)
